Results: patent US8999987B2, “Dihydropyridophthalazinone inhibitors of poly(ADP-ribose)polymerase (PARP)” (BioMarin Pharmaceutical Inc., priority 2008, dated 2015)

Experiments:
BRCA2-deficient tumors = conditions: cited from earlier work
CAPAN-1 cells = CAPAN-1 cells in DMEM with FCS (20% v/v); cited from earlier work
PARP-1 = PARP-1 (Homo sapiens, UniProt P09874); conditions: PARP-1 inhibitor; cited from earlier work
[1] = system: BRCA2-deficient cell line V-C8; conditions: V-C8 compared with the BRCA2 wild type control; cited from earlier work
MX-1 xenograft model = experiment: Xenograft combination study with Cisplatin; type: in vivo, mice; conditions: MX-1 breast xenograft model; comparable doses of cisplatin or PARP inhibitor alone
Procedure: Female athymic nu/nu mice (8-10 weeks old) were used for all in vivo xenograft studies. Mice were quarantined for at least 1 week before experimental manipulation. Exponentially growing cells or in vivo passaged tumor fragments were implanted subcutaneously at the right flank of nude mice. Tumor-bearing mice were randomized according to tumor size into 6-8 mice/group in each study (average tumor size ˜150 mm^3). Mice were observed daily for survival and tumors were measured twice weekly by caliper in two dimensions and converted to tumor mass using the formula for a prolate ellipsoid (V=0.5 a×b^2), where a and b are the long and short diameters of the tumor, respectively, and assuming unit density (1 mm^3=1 mg).
Combination study: PARP inhibitory compounds described herein in vehicle 10% DMAc/6% Solutal/84% PBS, were either administered orally, once daily for 5 days with Temozolomide (17 mg/kg or 34 mg/kg, p.o., qd×5, 30 min after each dose of compounds) in SW620 xenograft model or dosed orally, once daily for 8 days with 6 mg/kg Cisplatin (once by ip on day 3, 30 min after first dose of PARP inhibitors) in MX-1 xenograft model. Mice were observed and individual tumor was measured for 30 more days after the last dosing of PARP inhibitory compounds.

PARP-1, sequence (P09874 whole entry, species assumed): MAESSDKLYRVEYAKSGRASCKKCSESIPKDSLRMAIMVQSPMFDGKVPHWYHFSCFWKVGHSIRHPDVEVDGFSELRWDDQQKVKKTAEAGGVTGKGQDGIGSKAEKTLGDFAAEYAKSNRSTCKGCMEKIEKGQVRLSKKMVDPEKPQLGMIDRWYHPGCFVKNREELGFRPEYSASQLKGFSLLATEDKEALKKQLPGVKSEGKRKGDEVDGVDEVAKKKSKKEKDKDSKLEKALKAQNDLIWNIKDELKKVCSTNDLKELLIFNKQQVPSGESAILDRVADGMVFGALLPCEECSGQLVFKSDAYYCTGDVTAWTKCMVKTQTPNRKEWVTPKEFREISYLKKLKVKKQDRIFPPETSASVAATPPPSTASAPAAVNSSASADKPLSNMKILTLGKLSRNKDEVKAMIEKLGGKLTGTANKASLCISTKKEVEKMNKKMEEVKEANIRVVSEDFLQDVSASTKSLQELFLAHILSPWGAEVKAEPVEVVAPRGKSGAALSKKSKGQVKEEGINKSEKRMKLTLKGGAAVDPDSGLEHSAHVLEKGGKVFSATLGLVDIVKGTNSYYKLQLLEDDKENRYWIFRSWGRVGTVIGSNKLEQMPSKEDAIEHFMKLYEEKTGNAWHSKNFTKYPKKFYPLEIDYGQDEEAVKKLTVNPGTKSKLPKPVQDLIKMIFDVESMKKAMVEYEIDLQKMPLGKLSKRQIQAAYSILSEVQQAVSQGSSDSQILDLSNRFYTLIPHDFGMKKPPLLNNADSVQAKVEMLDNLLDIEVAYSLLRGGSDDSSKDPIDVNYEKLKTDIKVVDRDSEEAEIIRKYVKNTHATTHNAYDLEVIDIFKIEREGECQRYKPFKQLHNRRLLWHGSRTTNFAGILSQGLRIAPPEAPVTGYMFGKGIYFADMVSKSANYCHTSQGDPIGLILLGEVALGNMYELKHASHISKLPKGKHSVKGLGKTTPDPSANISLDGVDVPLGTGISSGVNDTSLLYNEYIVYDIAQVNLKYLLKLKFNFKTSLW

SMILES | in vivo efficacy, tumor growth (BRCA2-deficient tumors) | sensitivity in clonogenic survival assay (CAPAN-1 cells) | Ki (PARP-1) [nM] | sensitivity in clonogenic survival assay [1] | tumor inhibition, agent alone (MX-1 xenograft model)
O=C1CCC(=O)N1c1cc(Cc2n[nH]c(=O)c3ccccc23)ccc1F [KU0058684] | shown in vivo efficacy in blocking the growth of BRCA2-deficient tumors | showing sensitivity to PARP inhibition |  |  | 
Cc1nc2c(O)cccc2c(=O)[nH]1 [NU1025] |  |  | 50 | exhibited sensitivity | 
N.N.[Cl][Pt][Cl] [cisplatin] |  |  |  |  | only small to modest tumor inhibition
CN(C)Cc1ccc(-c2nc3cccc4c3n2CCNC4=O)cc1 [AG14361] |  |  | 5 | exhibited sensitivity | 
